Test results from patent US6593363B1, “Diterpene derivatives and anti-inflammatory analgesic agents comprising the same” (Sae Han Pharm. Co., Ltd., priority 1998, dated 2003).

Tests used:
COX-2 = target: T1, COX-2 (Ovis aries, UniProt P79208); experiment: Inhibition of PGE2 synthesis by inhibiting COX-2 activity (in vitro, TLC/autoradiography); type: biochemical, sheep; conditions: for IC50: 3 Unit COX-2 from sheep placenta, [1-14C] arachidonic acid, 37° C. for 20 min
T1 construct: 3 Unit of COX-2 (Layman chemical) that is separated from sheep placenta and purified; purchased Layman chemical (sic); host or cells: sheep placenta (tissue-derived)
T1 sequence (P79208 17-603): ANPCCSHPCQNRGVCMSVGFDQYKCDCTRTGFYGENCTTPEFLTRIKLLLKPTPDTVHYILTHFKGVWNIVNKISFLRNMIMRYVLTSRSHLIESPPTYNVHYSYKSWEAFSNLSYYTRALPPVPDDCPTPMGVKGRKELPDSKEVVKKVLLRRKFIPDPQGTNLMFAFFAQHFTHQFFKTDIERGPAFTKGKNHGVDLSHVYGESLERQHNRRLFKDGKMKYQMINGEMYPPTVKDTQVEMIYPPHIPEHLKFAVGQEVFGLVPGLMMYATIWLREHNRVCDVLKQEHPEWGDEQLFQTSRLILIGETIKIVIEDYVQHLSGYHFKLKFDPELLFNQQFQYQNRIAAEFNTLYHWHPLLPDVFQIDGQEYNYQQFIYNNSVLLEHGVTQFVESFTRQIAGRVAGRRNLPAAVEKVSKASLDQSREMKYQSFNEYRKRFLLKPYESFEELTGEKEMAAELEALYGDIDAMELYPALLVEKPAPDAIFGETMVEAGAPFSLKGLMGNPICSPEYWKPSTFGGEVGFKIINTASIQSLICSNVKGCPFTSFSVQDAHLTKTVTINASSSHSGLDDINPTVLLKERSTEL
Experimental: The inhibition effect of the novel derivatives against PGE2 synthesis was tested in vitro. […] The novel derivatives were synthesized from (−)-pimara-9(11), 15-diene-4-carboxylic acid, which is a diterpene compound isolated from root-bark of Acanthopanax Koreanum.
The mixture was stranded on ice for 5 min. To the mixture, the sample for assay of COX-2 activity was added, and then incubated on ice for 10 min. After preincubation, 0.02 μCi of [1-^14C] arachidonic acid, as an substrate, was added, and reacted at 37° C. for 20 min. For the termination of the reaction, 10 μl of 2 M HCl was added. Prostaglandin produced was extracted with ethylether twice. Two ethylether layers were integrated, and the solvent was evaporated at a 37° C. water-bath. […] PGE2 part of TLC plate developed was observed using autoradiography (PACKARD). The amount of PGE2 decreased by the sample was compared with reference, and then COX-2 inhibition activity of the sample was determined.

Raw 264.7 = experiment: Cytotoxicity, MTT assay; type: cell-based; conditions: Raw 264.7, MTT assay at 48 hours after sample treatment
Experimental: (§1) To investigate the utility of diterpene derivatives synthesized, cytotoxicities of some derivatives were tested.
(§2) The cytotoxicity was tested using Raw 264.7. The cytotoxicity and non-cytotoxicity were judged by performing MTT assay at 48 hours after sample treatment.

Cytotoxicity, MTT assay = type: cell-based; conditions: mouse, Raw 264.7 cells; Raw 264.7, MTT assay at 48 hours after sample treatment
Experimental: as §1, §2

[1] = tested on: mono-arthritis model, tibeo-calcanean joint; experiment: Anti-inflammatory activity against acute inflammation, adjuvant mono-arthritis model (edema index); type: in vivo; conditions: rat, 5 mg/kg intraperitoneal; for edema index size: 1 hour after inducing inflammation; for effect on edema index compared with koprofen or indometacin: after 4 hours
Experimental: For some of the natural single material and synthetic derivatives thereof, of which the inhibition effect against PGE2 synthesis was tested in Experimental example 1, the anti-inflammatory activity against arthritis was tested using a mono-arthritis model as follows:
Derivatives synthesized were dissolved in the mixed solvent of ethanol: Tween 80: saline (1:1:8), and then administered by intrapertioneal injection. Referring to the result of the in vitro test, 5 mg/kg was used as a dose for primary screening test. Adjuvant that was dissolved in mineral oil and then sterilized, was administered into tibeo-calcanean joint of right crus posterius of rat to induce arthritis. The injection volume is controlled to be contained M. butyricum 100 μg/50 μl.
Edema degree was determined primarily, and the degree was used as an index of inflammation. The degree was determined by the estimation method for section area of tibeo-calcanean joint part. Width and length measurements of the joint part were taken according to time schedule upon inducing inflammation, and the width multiplied by the length. The multiplied value was then used as a section area index (SAI). On the basis of the section area index, edema index was calculated as follows: […]
(SAI of inflammatory joint−SAI of normal joint)
Each index was determined at 1, 4 and 24 hours after adjuvant injection. The index value determined at the same part before adjuvant injection was used as one of normal joint.
Unpaired t-test or ANOVA using Fisher PLSD verified the statistical significance.

Compound | IC50 (COX-2) [µM] | further results
C=C[C@@]1(C)CC=C2C(CCC3[C@](C)(C(=O)NN)CCC[C@@]23C)C1 (stereo partly drawn) [Example 13, 4-Carbazoyl-(−)-pimara-9(11), 15-diene] | 41.9 | 
16-Hydroxy-(−)-pimara-4-carboxylic acid [Example 16] |  | inhibition effect against PGE2 synthesis (in words) (COX-2): excellent inhibition effect; IC50 (Raw 264.7): 137 µM
16-Methoxyethoxymethoxy-(−)-Pimara-9(11)-En-4-Carboxylic Acid [Example 52] | > 2000 | 
C[C@]1(CCO)CC=C2C(CCC3[C@](C)(C(=O)O)CCC[C@@]23C)C1 (stereo partly drawn) [Example 15, 16-Hydroxy-(−)-pimara-9(11)-en-4-carboxylic acid] | > 2000 | IC50 at 48 h (Cytotoxicity, MTT assay): 139 µM
C=CC1(C)CC=C2C(CCC3C(C)(CO)CCCC23C)C1 (stereo not drawn) [Example 1, 4-Hydroxymethyl-(−)-pimara-9(11),15-diene] | > 2000 | 
C=CC1(C)CC=C2C(CCC3C(C)(C(=O)NC)CCCC23C)C1 (stereo not drawn) [Example 12, 4-(N-methyl)carbamoyl-(−)-pimara-9(11), 15-diene] | > 2000 | 
13-Isoxazolinyl-(−)-pimara-9(11)-en-4-carboxylic acid [Example 21] | > 2000 | IC50 (Raw 264.7): 250 µM
C=CC1(C)CC=C2C(CCC3C(C)(CC(=O)NS(=O)(=O)c4ccc(I)cc4)CCCC23C)C1 (stereo not drawn) [Example 38, 4-(N-pipsyl)carbamoylmethyl-(−)-pimara-9(11),15-diene] | 72.2 | 
C=C[C@@]1(C)CC=C2C(CCC3[C@@]2(C)CCC[C@@]3(C)/C=C/C=C/C(=O)O)C1 (stereo partly drawn) [Example 29, 4-Carboxybutadienyl-(−)-pimara-9(11),15-diene] | 26.8 | 
CC(=O)OCCC1(C)CC=C2C(CCC3C(C)(C(=O)O)CCCC23C)C1 (stereo not drawn) [Example 48, 16-Acetyloxy-(−)-Pimara-9(11)-En-4-Carboxylic Acid] | 1420 | 
C=CC1(C)CC=C2C(CCC3C(C)(CCC(=O)NS(=O)(=O)c4ccc(I)cc4)CCCC23C)C1 (stereo not drawn) [Example 40, 4-(N-pipsyl)carbamoylethyl-(−)-pimara-9(11),15-diene] | 60.7 | 
C=CC1(C)CC=C2C(CCC3C(C)(CCC=CC(=O)O)CCCC23C)C1 (stereo not drawn) [Example 33, 4-Carboxyhomoallyl-(−)-pimara-9(11),15-diene] | 63.8 | 
CC1(CCO)CC(O)C2C(CCC3C(C)(C(=O)O)CCCC23C)C1 (stereo not drawn) [Example 19, 11,16-Dihydroxy-(−)-pimara-4-carboxylic acid] | > 2000 | IC50 (Raw 264.7): 152 µM
C=CC1(C)CC=C2C(CCC3C(C)(C=CC(=O)O)CCCC23C)C1 (stereo not drawn) [Example 7, 4-Carboxyvinyl-(−)-pimara-9(11),15-diene] |  | inhibition effect against PGE2 synthesis (in words) (COX-2): excellent inhibition effect
C=CC1(C)CC=C2C(CCC3C(C)(C(=O)NO)CCCC23C)C1 (stereo not drawn) [Example 14, 4-(N-hydroxy)carbaomyl-(−)-pimara-9(11), 15-diene] | 819 | 
C=C[C@@]1(C)CC=C2C(CCC3[C@@]2(C)CCC[C@@]3(C)/C=C/C(=O)O)C1 (stereo partly drawn) [Example 7, 4-Carboxyvinyl-(−)-pimara-9(11),15-diene] | 69.7 | IC50 at 48 h (Cytotoxicity, MTT assay): 139 µM
C=CC1(C)CC=C2C(CCC3C(C)(CC(=O)O)CCCC23C)C1 (stereo not drawn) [Example 5, 4-Carboxymethyl-(−)-pimara-9(11),15-diene] | 82.3 | inhibition effect against PGE2 synthesis (in words) (COX-2): excellent inhibition effect; edema index size [1]: not more then half; effect on edema index compared with koprofen or indometacin [1]: even superior effect; IC50 (Raw 264.7): 140 µM
CON=CCC1(C)CC=C2C(CCC3C(C)(C(=O)O)CCCC23C)C1 (stereo not drawn) [Example 55, 16-Methoxyimino-(−)-Pimara-9(11)-En-4-Carboxylic Acid] | > 2000 | 
COCC[C@@]1(C)CC=C2[C@@H](CC[C@@H]3[C@](C)(C(=O)O)CCC[C@@]23C)C1 [Example 46, 16-Methoxy-(−)-Pimara-9(11)-En-4-Carboxylic Acid] | > 2000 | 
C=C[C@@]1(C)CC=C2C(CCC3[C@](C)(C(N)=O)CCC[C@@]23C)C1 (stereo partly drawn) [Example 11, 4-Carbamoyl-(−)-pimara-9(11), 15-diene] | > 2000 | 
C=C[C@@]1(C)CC=C2C(CCC3[C@](C)(C(=O)O)CCC[C@@]23C)C1 (single isomer, unassigned; (-)) [Natural Component, (−)-pimara-9(11),15-diene-4-carboxylic acid, reference compound] | 790 | 
C=C[C@@]1(C)CC=C2[C@@H](CC[C@@H]3[C@](C)(CCC(=O)O)CCC[C@@]23C)C1 [Example 9, 4-Carboxyethyl-(−)-pimara-9(11),15-diene] | 105 | inhibition effect against PGE2 synthesis (in words) (COX-2): excellent inhibition effect; edema index size [1]: not more then half; effect on edema index compared with koprofen or indometacin [1]: even superior effect; IC50 at 48 h (Cytotoxicity, MTT assay): 114 µM
C=CC1(C)CC=C2C(CCC3C(C)(CCC(=O)NS(C)(=O)=O)CCCC23C)C1 (stereo not drawn) [Example 41, 4-(N-methanesulfonyl)carbamoylethyl-(−)-pimara-9(11),15-diene] | 180 | 
C=CC1(C)CC=C2C(CCC3C(C)(C=CC=CC(=O)NS(=O)(=O)c4ccc(I)cc4)CCCC23C)C1 (stereo not drawn) [Example 43, 4-(N-Pipsyl)Carbamoylbutadienyl-(−)-Pimara-9(11),15-Diene] | 25.6 | 
COCOCC[C@@]1(C)CC=C2[C@@H](CC[C@@H]3[C@](C)(C(=O)O)CCC[C@@]23C)C1 [Example 50, 16-Methoxymethoxy-(−)-Pimara-9(11)-En-4-Carboxylic Acid] | > 2000 | 
